A short description of test [1]: Inhibition of NADH oxidase in pig heart sub-mitochondrial particles using NADH as substrate after 3 mins measured every 15 sec for 10 mins under aerobic condition. Set-up: species or system Sus scrofa.
The target of test [2] is T1, Fumarate reductase (Ascaris suum, UniProt F1KRD8).
T1 sequence (F1KRD8 whole entry): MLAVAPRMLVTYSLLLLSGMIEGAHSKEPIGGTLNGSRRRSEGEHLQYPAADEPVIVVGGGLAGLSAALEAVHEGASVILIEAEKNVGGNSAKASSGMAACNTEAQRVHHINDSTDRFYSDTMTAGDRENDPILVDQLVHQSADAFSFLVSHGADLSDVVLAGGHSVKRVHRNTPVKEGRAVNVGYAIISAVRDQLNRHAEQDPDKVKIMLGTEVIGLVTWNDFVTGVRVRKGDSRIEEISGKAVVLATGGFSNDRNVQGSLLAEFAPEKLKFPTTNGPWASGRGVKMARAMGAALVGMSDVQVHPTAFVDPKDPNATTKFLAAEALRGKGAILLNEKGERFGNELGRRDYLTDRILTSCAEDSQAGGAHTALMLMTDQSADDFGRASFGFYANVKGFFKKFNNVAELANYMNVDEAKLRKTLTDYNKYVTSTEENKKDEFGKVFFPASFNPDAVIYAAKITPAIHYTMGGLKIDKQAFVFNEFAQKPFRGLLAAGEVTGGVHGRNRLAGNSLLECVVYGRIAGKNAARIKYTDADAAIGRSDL
The test is described as follows: Inhibition of NADH-Fumarate reductase in Ascaris suum muscle sub-mitochondrial particles using disodium fumarate as substrate in presence of NADH after 3 mins measured every 15 sec for 10 mins under anaerobic condition.

For orientation: IC50 means the concentration at which inhibition is half-maximal. Take `C=C1C=C(C)[C@H](/C(C)=C/C=C/C=C/C=C/[C@]2(C)[C@H]3OC(=O)[C@]2(C)C(=O)[C@@H]3C)O[C@H]1C`: the IC50 in test [1] was determined as 35000 nM; in test [2] it was 840 nM.

Consider `CC1=C[C@@](C)(O)[C@@H](C)O[C@H]1/C(C)=C/C=C/C=C/C=C/C(C)=C/[C@]1(C)[C@H]2OC(=O)[C@]1(C)C(=O)[C@@H]2C`, for which, in test [2], the concentration for half-maximal inhibition (IC50) is 2.4 nM.

Consider `CO[C@@]1(C)C=C(C)[C@H](/C(C)=C/C=C/C=C/C=C/[C@]2(C)[C@H]3OC(=O)[C@]2(C)C(=O)[C@@H]3C)O[C@H]1C`, for which the IC50 in test [1] was determined as 100000 nM; in test [2] it was 840 nM.

Consider `CO[C@]1(C)C=C(C)[C@H](/C(C)=C/C=C/C=C/C=C/[C@]2(C)[C@H]3OC(=O)[C@]2(C)C(=O)[C@@H]3C)O[C@H]1C`, for which the IC50 was 145000 nM in test [1] and 1350 nM in test [2].

Consider `CC1=C[C@@](C)(O)[C@@H](C)O[C@@H]1/C(C)=C/C=C/C=C/C=C/C(C)=C/[C@]1(C)[C@H]2OC(=O)[C@]1(C)C(=O)[C@@H]2C`, for which, in test [2], the half-maximal inhibitory concentration (IC50) was determined as 470 nM.

As to `CC1=C[C@](C)(O)[C@H](/C(C)=C/C=C/C=C/C=C/[C@]2(C)[C@H]3OC(=O)[C@]2(C)C(=O)[C@@H]3C)O[C@H]1C`, the results for the IC50 in test [1] and in test [2] were 56000 nM and 850 nM, respectively.

Regarding `Cc1cc(/C=C/c2ccc3cc(N(C)C)ccc3[n+]2C)c(C)n1-c1ccccc1` [PYRVINIUM PAMOATE], in test [2], the IC50 was determined as 500 nM.

The record behind these values is ChEMBL document CHEMBL3862002, “Wortmannilactones I-L, new NADH-fumarate reductase inhibitors, induced by adding suberoylanilide hydroxamic acid to the culture medium of Talaromyces wortmannii” (Bioorg Med Chem Lett, 2016).
